The results in this text go back to patent US9598451B2, “Bis-organometallic 2-amino-3-hydroxy-2-methylpropanenitrile derivatives for use as anthelmintics” (UNIVERSITÄT ZÜRICH, priority 2013, dated 2017).

What all share (type): cell-based
Test [1] deals with human cervical cancer HeLa. In words: fluorometric cell viability assay (Resazurin), HeLa. The settings on record: HeLa cells, treated for 2 days. How it is done:
(§1) Cell Culture: Human cervical carcinoma cells (HeLa) were cultured in DMEM (Gibco) supplemented with 5% fetal calf serum (FCS, Gibco), 100 U/ml penicillin, 100 μg/ml streptomycin at 37° C. and 5% CO2. The normal human fetal lung fibroblast MRC-5 cell line was maintained in F-10 medium (Gibco) supplemented with 10% FCS (Gibco), 200 mmol/l L-Glutamine, 100 U/ml penicillin, and 100 μg/ml streptomycin at 37° C. and 5% CO2. To establish the anticancer potential of the compounds they were tested in one cell line, namely HeLa by a fluorometric cell viability assay using Resazurin (Promocell GmbH). Compounds showing cytotoxicity were then tested on normal MRC-5 cells. 1 day before treatment, cells were plated in triplicates in 96-well plates at a density of 4×10^3 cells/well in 100μl for HeLa and 7×10^3 cells/well for MRC-5 cells. Cells were treated with increasing concentrations of the compounds for 2 days. After 2 days, medium and drug were removed and […] fresh medium containing Resazurin (0.2 mg/ml final concentration) were added. After 4h of incubation at 37° C., the highly red fluorescent dye resorufin's fluorescence was quantified at 590 nm emission with 540 nm excitation wavelength in the SpectraMax M5 microplate Reader. […]
On the technique in general: Alamar Blue is a resazurin reagent that responds to reducing activity.

Another test has as its system H. contortus. The experiment in a line: larval development assay (number of L3). The protocol: In vitro experiments can be conducted by testing compounds in a larval development assay. To do this, sheep are infected with infective third-stage larvae (L3) of species of Haemonchus, Trichstrongylus, Teledorsagia, Cooperia, Oesophagostomum or Chabertia. Faeces from these sheep are collected and used for experiments; ˜100 g of faeces are crushed homogenized and suspended in ˜1000 ml of sugar solution (specific gravity 1.2), put through a ‘tea strainer’ sieve, and the large undigested food material in the sieve discarded. The sugar solution is then placed into a flat dish and strips of plastic overhead transparency film placed on the surface. The plastic is left for at least 45 minutes to allow the eggs to stick and then removed carefully. The eggs are collected by washing them from the plastic film, with water, into a 50 ml centrifuge tube. The water containing egg suspension eggs is put through a […] to remove further plant material and then centrifuged at 1,000×g for 10 minutes. The supernatant is checked for eggs and then discarded as the majority of eggs are at the bottom of the tube. These eggs are collected in 1 ml of water and diluted to ˜200 eggs/20 ml. • 1. […] Following 7 days additional incubation, the numbers of L3 larvae that had developed in each well is determined.

The test system of a further test is C. elegans. The experiment in a line: C. elegans movement inhibition assay. The settings on record: for mobility of the C. elegans worms: 50 μM, result in words. The protocol: C. elegans movement inhibition assay: Asynchronous N2 C. elegans worms (Bristol) were maintained on nematode growth medium (NGM) agar, seeded with a lawn on OP50 E. coli as a food-source, according to standard protocol (Maintenance of C. elegans; Stiernagle, T., Ed.; WormBook, 2006.). Worms were harvested from NGM plates by washing with M9 buffer (42 mmol/l Na2HPO4, 86 mmol/l NaCl and 1 mmol/l MgSO4), aspiration and collection in a 10 mL tube (Falcon). The average number of worms in 5 μL of this suspension was calculated by transferring 4×5 μL aliquots to a glass slide (Menzel Glaser), and worms were enumerated under a compound microscope (Olympus CH30). To adjust the suspension to contain 1 worm per μL, M9 buffer was either added or removed after pelleting worms at 600×g for 30 sec.
Dilution of test compounds, Zolvix (monepantel) and DMSO for working stock solutions and 96 well plate set-up for liquid screen: A volume of […] buffer was added to each well in a 96-well plate, using a multichannel pipettor. A volume of 20μL of worm suspension was added to each well using a single-channel pipettor, with a trimmed pipette tip (increased aperture to minimize damage to worms). The worm suspension was resuspended by flicking after every three wells to maintain consistency. The compounds were stored at 4° C., and diluted in dimethyl sulfoxide (DMSO) to achieve a 100 mmol/l concentration 1 hr prior to addition to assay. These stock solutions were diluted further in DMSO to create a series of 20 mmol/l, […] and 0.002 mmol/l which were subsequently diluted 1:20 in M9 buffer to create 1 mmol/l, 0.1 mmol/l, 1 μmol/l and 0.1 μmol/l (all 5% (v/v) DMSO). […] A Zolvix (monepantel) dilution series was simultaneously created following the same dilution schema, and used as a positive control; 10 μL of 10% DMSO was added to achieve 1% DMSO vehicle control. 10 μL M9 was added to negative control wells (see FIG. 1). Plates were incubated at […]
Quantitative worm mobility scoring: Immobile worms were counted as a percentage of total worms in each well using an Olympus SZ30 dissecting microscope. The immobile fraction was subtracted from the total, and this remainder was divided by the total to give a percentage of live worms per well. Descriptive and inferential statistics were deferred until further replicates are performed.

For test [2], the system named is human lung fibroblasts MRC-5. In words: fluorometric cell viability assay (Resazurin), MRC-5. The settings on record: MRC-5 cells, treated for 2 days. How it is done:
as §1

A value given as a limit tells only on which side of the number the result lay.

One may read the IC50 as the concentration needed to halve the response being measured. The low end stands for higher potency, the high end for lower potency. For the substance “2-Ferroceneamido-2-cyanopropyl ferrocenate [Compound 2]”, the values for the IC50 in test [1] and in test [2] were over 100 µM and 24.6 µM, respectively. For the same substance, the “Number of L3 H. contortus/100 μM” value in the test on H. contortus is listed as over 100. Moreover, the “Mobility in C. elegans at 50 μM” value in the test on C. elegans was 22%. In addition, the “mobility of the C. elegans worms” value in the test with C. elegans is given as “reduced”.

For the substance “N-(1-(ferrocenyloxy)-2-cyanopropan-2-yl)ferroceneamide [Compound 1]”, the “Number of L3 H. contortus/100 μM” value in the test with H. contortus came out at 94.7. For the same substance, in the test on C. elegans, the “Mobility in C. elegans at 50 μM” value amounted to 25% and the “mobility of the C. elegans worms” value is given as “reduced”.

For “2-Cyano-2-(ruthenocenecarboxamido)propyl ruthenocnecarboxylate [Compound 2a]”, the IC50 in test [1] and in test [2] was over 100 µM in each case.
